Where two headings read alike, the source gives them in different places.
Legend:
F. trinervia PEPC = molecular target: T1, F. trinervia PEPC (Flaveria trinervia, UniProt P30694); experiment: biochemical; assay type: biochemical
T1 construct: the full-length ppcA gene of PEPC from F. trinervia (EMBL-Bank X61304); made in house; host or cells: Escherichia coli BL21(DE3)
T1 sequence (P30694 1-966): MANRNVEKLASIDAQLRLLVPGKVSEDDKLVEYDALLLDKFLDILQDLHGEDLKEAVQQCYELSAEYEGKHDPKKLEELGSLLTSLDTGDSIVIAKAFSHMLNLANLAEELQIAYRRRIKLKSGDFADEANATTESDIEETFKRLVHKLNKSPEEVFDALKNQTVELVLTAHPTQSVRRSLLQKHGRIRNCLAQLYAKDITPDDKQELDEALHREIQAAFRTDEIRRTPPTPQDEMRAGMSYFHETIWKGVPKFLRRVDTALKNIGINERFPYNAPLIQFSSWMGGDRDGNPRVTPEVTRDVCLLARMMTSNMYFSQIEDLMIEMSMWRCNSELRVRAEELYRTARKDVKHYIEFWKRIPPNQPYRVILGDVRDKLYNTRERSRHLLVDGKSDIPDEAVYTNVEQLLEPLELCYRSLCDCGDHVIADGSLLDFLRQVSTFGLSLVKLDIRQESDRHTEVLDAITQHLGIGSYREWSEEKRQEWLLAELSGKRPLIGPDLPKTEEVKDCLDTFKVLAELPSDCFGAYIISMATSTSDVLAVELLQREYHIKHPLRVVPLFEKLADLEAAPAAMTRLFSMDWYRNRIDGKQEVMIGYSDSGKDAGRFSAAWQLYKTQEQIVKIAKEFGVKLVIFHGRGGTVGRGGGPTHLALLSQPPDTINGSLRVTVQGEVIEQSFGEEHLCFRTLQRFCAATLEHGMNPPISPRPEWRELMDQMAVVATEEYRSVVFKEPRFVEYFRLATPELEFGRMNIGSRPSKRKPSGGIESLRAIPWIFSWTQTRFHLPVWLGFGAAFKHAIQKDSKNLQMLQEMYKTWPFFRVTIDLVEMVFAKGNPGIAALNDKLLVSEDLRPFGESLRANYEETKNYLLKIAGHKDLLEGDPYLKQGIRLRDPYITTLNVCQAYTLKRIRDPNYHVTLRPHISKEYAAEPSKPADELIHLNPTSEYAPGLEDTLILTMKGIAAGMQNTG

[1] = system: Escherichia coli K-12 MG1655; experiment: Bacterial growth in microscale cultivation, E. coli; assay type: cell-based; details: relative to control; for activity at 0.4 µM / activity at 4 µM / activity at 40 µM: Escherichia coli
Outline: (§1)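 Inhibitors in DMSO were added to the medium, at a maximum of 400 μM for trans-chalcone and 100 μM for 2'-hydroxychalcone. Cultures were seeded at OD600 0.5, or 0.25 for B. subtilis, and growth was followed as 620 nm backscatter in a BioLector at 1200 rpm. Final backscatter, growth rate and lag phase were compared with DMSO controls.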

[2] = system: Pseudomonas putida KT2440; experiment: Bacterial growth in microscale cultivation, P. putida; assay type: cell-based; details: relative to control; for activity at 0.4 µM / activity at 4 µM / activity at 40 µM: Pseudomonas putida
Outline: as §1

Bacillus subtilis 168 = experiment: Bacterial growth in microscale cultivation, B. subtilis; assay type: cell-based; details: relative to control
Outline: as §1

## O=C(/C=C/c1ccc(O)c(O)c1)c1ccc(O)cc1O [Compound 8, 2′,4′,3,4-Tetrahydroxy-chalcone]
F. trinervia PEPC; C4 PEPC over C3 isoform
  Selectivity C4/C3: 29 fold
F. trinervia PEPC; C4 PEPC, read-out: IC50 F. trinervia PEPC
  IC50: 2.2 ± 0.2 µM
[1]; MG1655, complex medium, 0.4 µM, read-out: Final Backscatter
  activity at 0.4 µM: 98.9%
[1]; MG1655, complex medium, 0.4 µM, read-out: Growth rate
  activity at 0.4 µM: 102%
[1]; MG1655, complex medium, 4 µM, read-out: Final Backscatter
  activity at 4 µM: 102%
[1]; MG1655, complex medium, 4 µM, read-out: Growth rate
  activity at 4 µM: 95%
[1]; MG1655, complex medium, 40 µM, read-out: Final Backscatter
  activity at 40 µM: 95.7%
[1]; MG1655, complex medium, 40 µM, read-out: Growth rate
  activity at 40 µM: 89.4%
[1]; MG1655, minimal medium, 0.4 µM, read-out: Final Backscatter
  activity at 0.4 µM: 92.9%
[1]; MG1655, minimal medium, 0.4 µM, read-out: Growth rate
  activity at 0.4 µM: 83.9%
[1]; MG1655, minimal medium, 4 µM, read-out: Final Backscatter
  activity at 4 µM: 94.1%
[1]; MG1655, minimal medium, 4 µM, read-out: Growth rate
  activity at 4 µM: 86.4%
[1]; MG1655, minimal medium, 40 µM, read-out: Final Backscatter
  activity at 40 µM: 96.6%
[1]; MG1655, minimal medium, 40 µM, read-out: Growth rate
  activity at 40 µM: 85.3%
[1]; complex medium, 0.4 µM
  Lag Phase: 103,3%
[1]; complex medium, 4 µM
  Lag Phase: 96,7%
[1]; complex medium, 40 µM
  Lag Phase: 100,0%
[1]; minimal medium, 0.4 µM
  Lag Phase: 96,2%
[1]; minimal medium, 4 µM
  Lag Phase: 98,1%
[1]; minimal medium, 40 µM
  Lag Phase: 98,1%
[2]; KT2440, complex medium, 0.4 µM, read-out: Final Backscatter
  activity at 0.4 µM: 94.7%
[2]; KT2440, complex medium, 0.4 µM, read-out: Growth rate
  activity at 0.4 µM: 90.8%
[2]; KT2440, complex medium, 4 µM, read-out: Final Backscatter
  activity at 4 µM: 97%
[2]; KT2440, complex medium, 4 µM, read-out: Growth rate
  activity at 4 µM: 97.4%
[2]; KT2440, complex medium, 40 µM, read-out: Final Backscatter
  activity at 40 µM: 94.9%
[2]; KT2440, complex medium, 40 µM, read-out: Growth rate
  activity at 40 µM: 95.3%
[2]; KT2440, minimal medium, 0.4 µM, read-out: Final Backscatter
  activity at 0.4 µM: 87%
[2]; KT2440, minimal medium, 0.4 µM, read-out: Growth rate
  activity at 0.4 µM: 83.7%
[2]; KT2440, minimal medium, 4 µM, read-out: Final Backscatter
  activity at 4 µM: 89.8%
[2]; KT2440, minimal medium, 4 µM, read-out: Growth rate
  activity at 4 µM: 89%
[2]; KT2440, minimal medium, 40 µM, read-out: Final Backscatter
  activity at 40 µM: 94.8%
[2]; KT2440, minimal medium, 40 µM, read-out: Growth rate
  activity at 40 µM: 90%
[2]; complex medium, 0.4 µM
  Lag Phase: 92,6%
[2]; complex medium, 4 µM
  Lag Phase: 93,2%
[2]; complex medium, 40 µM
  Lag Phase: 96,3%
[2]; minimal medium, 0.4 µM
  Lag Phase: 99,6%
[2]; minimal medium, 4 µM
  Lag Phase: 99,6%
[2]; minimal medium, 40 µM
  Lag Phase: 98,5%
Bacillus subtilis 168; Bacillus subtilis, 168, complex medium, 0.4 µM, read-out: Final Backscatter
  activity at 0.4 µM: 98.1%
Bacillus subtilis 168; Bacillus subtilis, 168, complex medium, 0.4 µM, read-out: Growth rate
  activity at 0.4 µM: 98.2%
Bacillus subtilis 168; Bacillus subtilis, 168, complex medium, 4 µM, read-out: Final Backscatter
  activity at 4 µM: 100%
Bacillus subtilis 168; Bacillus subtilis, 168, complex medium, 4 µM, read-out: Growth rate
  activity at 4 µM: 111%
Bacillus subtilis 168; Bacillus subtilis, 168, complex medium, 40 µM, read-out: Final Backscatter
  activity at 40 µM: 98.9%
Bacillus subtilis 168; Bacillus subtilis, 168, complex medium, 40 µM, read-out: Growth rate
  activity at 40 µM: 109%
Bacillus subtilis 168; Bacillus subtilis, 168, minimal medium, 0.4 µM, read-out: Final Backscatter
  activity at 0.4 µM: 85.1%
Bacillus subtilis 168; Bacillus subtilis, 168, minimal medium, 0.4 µM, read-out: Growth rate
  activity at 0.4 µM: 106%
Bacillus subtilis 168; Bacillus subtilis, 168, minimal medium, 4 µM, read-out: Final Backscatter
  activity at 4 µM: 92.1%
Bacillus subtilis 168; Bacillus subtilis, 168, minimal medium, 4 µM, read-out: Growth rate
  activity at 4 µM: 105%
Bacillus subtilis 168; Bacillus subtilis, 168, minimal medium, 40 µM, read-out: Final Backscatter
  activity at 40 µM: 94.2%
Bacillus subtilis 168; Bacillus subtilis, 168, minimal medium, 40 µM, read-out: Growth rate
  activity at 40 µM: 95.7%
Bacillus subtilis 168; complex medium, 0.4 µM
  Lag Phase: 98,3%
Bacillus subtilis 168; complex medium, 4 µM
  Lag Phase: 86,5%
Bacillus subtilis 168; complex medium, 40 µM
  Lag Phase: 105,1%
Bacillus subtilis 168; minimal medium, 0.4 µM
  Lag Phase: 107,5%
Bacillus subtilis 168; minimal medium, 4 µM
  Lag Phase: 110,3%
Bacillus subtilis 168; minimal medium, 40 µM
  Lag Phase: 90,4%

From PMC4893628, “Chalcone-based Selective Inhibitors of a C4 Plant Key Enzyme as Novel Potential Herbicides” (Scientific Reports, 2016)
